Measurements from patent US20230096103A1, “BERBERINE COMPOUNDS, BERBERINE COMPOSITIONS, AND METHODS FOR ADMINISTRATION THEREOF” (Dignity Health, priority 2020, published 2023).

Tests used:
VTA DA neurons [1] = assay: Miniature EPSCs in VTA DA neuron, patch-clamp whole-cell recording in VTA slice; type: cell-based
Description: Thus, the effect of /-THP on this nicotine-induced EPSC enhancement was studied. […] Co-application of 10 μM /-THP abolished nicotine-induced enhancement of mEPSCs (see, FIGS. 5A and 5C).

human α4β2-nAChR [2] = target: T1, human α4β2-nAChR (Homo sapiens, UniProt P17787+P43681); assay: Whole-cell patch-clamp of human α4β2-nAChR-mediated currents in transfected SH-EP1 cells; type: cell-based; settings: for ACh-induced currents, peak current component / ACh-induced currents, steady-state component: 30 μM co-applied with 1 mM ACh; for 1 mM ACh-induced whole-cell currents: 1 min pretreatment
T1 construct: expressed in transfected cells; host or cells: human SH-EP1 cell line
Description: The effects of THPBs on α4β2-nAChR function were evaluated in vitro. Specifically, whole-cell patch-clamp recording technique was employed in α4β2-nAChRs transfected with a human SH-EP1 cell-line. FIG. 1A provides graphs illustrating the effects of a 1 min pre-treatment of 30 μM /-THP, d/-THB or /-SPD on 1 mM ACh-induced current in SH-EP1 cell line.
Thus, when THPBs are co-applied with an agonist, it affects receptor function after agonist opens channels.
(§1) The effects of THB-induced inhibition on the α4β2-nAChR function were evaluating using human α4β2-nAChRs (transfected to SH-EP1 cells) and rat α4β2-nAChRs natively expressed in VTA DA neurons. The 30 μM THB (without pretreatment) inhibited both types (human and rat) of α4β2-nAChR function, and compared to peak current, the steady-state current portion was more sensitive to THB (FIGS. 3A-3C).
The effect of different concentrations of THB on 1 mM ACh-induced whole-cell currents were further examined in human α4β2-nAChRs in SH-EP1 cells. […] The steady-state current was more sensitive to THB than the peak current.
FIG. 9A provides a graph of traces of co-application of THB6 on ACh-induced current. FIG. 9B provides a graph of traces of the effect of 1 min pretreatment of THB6 on ACh-induced current. […] Each bar of the bar graph presented in FIG. 9C represents the mean from 4 cells and vertical bars indicate +Se. A ^“*” was given to indicate p<0.05, while a ^“***” was given to indicate p<0.001 in FIG. 9C. Data was analyzed with One-Way ANOVA.
A dosage containing 100 μM THB6 compound was evaluated on human and mouse α4β2-nAChR-mediated currents. FIG. 10A provides a graph of traces of ACh-induced whole-cell currents in human α4β2-nAChRs transfected in human SH-EP1 cells. FIG. 10B provides a graph of traces of ACh-induced whole-cell currents in mouse α4β2-nAChRs transfected in VTA dopamine neurons. […] Each bar in the bar graph of FIG. 10C represents the mean from 4 cells and vertical bars indicate +SE. A ^“*” was given to indicate p<0.05. A ^“***” was given to indicate p<0.001 in FIG. 9C. Data was analyzed with One-Way ANOVA.

male C57BL/6 mice = assay: Nicotine-induced conditioned place preference (CPP); type: in vivo, mouse
Description: A conventional biased CPP was performed on male C57BL/6 mice. Mice were put into two-compartment CPP apparatus (Med Associate Inc. VT) for accommodation once (20 min) a day for 3 days and for monitoring the preference to any specific side of compartment. Mice were divided into 3 groups (5 mice per group) and received 2 training sessions per day for 4 days.
When the mouse received a saline injection, it was placed into the opposite side for 20 min. […] Alternatively, the mice of the second group received saline injection and placed into the opposite side. The third group of mice (the I-THP only group) received /-THP i.p. injection (10 mg/Kg) and were placed into the least preferred side for 20 min. Alternatively, the mice received a saline injection and were placed into the opposite side.
On the 5th day, mice were tested for place preference by allowing free access to both conditioning compartments for 20 minutes. The foregoing 4-day training session was repeated on the 6th day. Mice of group 1 received their treatments without change. […] Alternatively, the mice of group 2 received a saline injection and then received a saline injection 5 min later. After the saline injection, the mice of group 2 were placed into the opposite chamber for 4 days. On the 10th day, the mice were tested for place preference for 20 min (See, FIG. 8).

mouse α4β2-nAChRs = target: T2, mouse α4β2-nAChRs (Mus musculus, UniProt O70174+Q9ERK7); assay: ACh-induced whole-cell currents of mouse α4β2-nAChRs in VTA dopamine neurons; type: cell-based; settings: 100 μM
T2 construct: expressed in transfected cells; host or cells: VTA dopamine neurons
Description: A dosage containing 100 μM THB6 compound was evaluated on human and mouse α4β2-nAChR-mediated currents. FIG. 10A provides a graph of traces of ACh-induced whole-cell currents in human α4β2-nAChRs transfected in human SH-EP1 cells. FIG. 10B provides a graph of traces of ACh-induced whole-cell currents in mouse α4β2-nAChRs transfected in VTA dopamine neurons. […] FIGS. 10C and 10D provide bar graphs showing the statistic result that THB6 inhibits both peak and steady-state compounds of ACh-induced currents. Each bar in the bar graph of FIG. 10C represents the mean from 4 cells and vertical bars indicate +SE. A ^“*” was given to indicate p<0.05. A ^“***” was given to indicate p<0.001 in FIG. 9C. Data was analyzed with One-Way ANOVA.

VTA DA neurons [3] = assay: Extracellular single unit recording of VTA DA neuron firing in anesthetized mice; type: in vivo, mouse
Description: The effect of systemic injection of THB6 on mouse VTA DA neuron firing was evaluated by applying 10 mg/kg via an IV to anesthetized mice and extracellular single unit recordings were performed. FIG. 12A provides an image of the VTA slice, showing the recording electrode track and recording site after the experiment. The location of the recording electrode track is depicted in FIG. 12B.

VTA DA neurons [4] = assay: Action potential firing in mouse VTA slices, cell-attached patch recording; type: cell-based
Description: Based on the evaluation of a dosage containing THB6 compounds on VTA slices, it was determined that THB6 prevents nicotine-induced firing rate increase in VTA DA neurons. […] FIG. 11B is a bar graph showing the statistical result of the normalized firing rate of THB6 compounds.

mice = assay: Mouse locomotor activity after systemic injection; type: in vivo
Text: Systemic injection of dosages containing THB6 to mice and the mice's locomotive activity was studied.

human α4β2-nAChR [5] = target: T1, human α4β2-nAChR; assay: 86Rb+ efflux assay, carbachol-induced response, heterologously expressed α4β2-nAChR; type: cell-based
rat α4β2-nAChRs = target: T3, rat α4β2-nAChRs (Rattus norvegicus, UniProt P09483+P12390); assay: Whole-cell currents of rat α4β2-nAChRs natively expressed in VTA DA neurons; type: cell-based; settings: 30 μM, without pretreatment
T3 construct: rat α4β2-nAChRs natively expressed in VTA DA neurons; endogenous in cells; host or cells: rat VTA dopamine neurons
Description: as §1

VTA DA neurons [6] = assay: In vivo VTA DA neuronal firing in anesthetized rats; parameters: species or system rat
Description: It was tested whether systemic injection of THB affected VTA DA neuron firing. As shown in FIGS. 6A-6C, injection of THB (1 mg/kg, i.v.) increased VTA DA neuron firing rate, bursting fraction (FIG. 6A), and slow oscillations (FIGS. 6B-6D). […] THB appears to eliminate nicotinic effect via its blockade of nAChRs. Therefore, the actions of THB are consistent with the double target hypothesis that THB blocks nAChRs (especially α4β2-nAChRs) and enhances DA release from VTA to DA neuronal targets.

human α4β2-nAChR [7] = target: T1, human α4β2-nAChR; assay: 3H-epibatidine (H-EBDN) binding and binding competition on heterologously expressed α4β2-nAChR; settings: FIG. 2A
[8] = 1 mg/kg, i.v., anesthetized rats

COc1cc2c(cc1OC)[C@@H]1Cc3ccc(OC)c(OC)c3CN1CC2 [/-THP, /-tetrahydropalmatine]
nicotine-induced enhancement of mEPSCs (VTA DA neurons [1]; 10 μM co-applied with 1 μM nicotine): abolished
ACh-induced currents, peak current component (human α4β2-nAChR [2]; SH-EP1 cells): only mildly reduced
ACh-induced currents, steady-state component (human α4β2-nAChR [2]; SH-EP1 cells): suppressed
1 mM ACh-induced whole-cell currents (human α4β2-nAChR [2]; 30 μM, SH-EP1 cells): dramatically eliminated
IC50 (human α4β2-nAChR [2]; co-application with 1 mM ACh, SH-EP1 cells, n=8, read-out: IC50 value for current net charge): 5.2 µM
Hill coefficient (human α4β2-nAChR [2]; co-application with 1 mM ACh, current net charge): 0.4
nicotine rewarding effects after CPP has been established (male C57BL/6 mice; 10 mg/Kg i.p. 5 min before nicotine 1.5 mg/Kg): counteracts

COc1ccc2c(c1OC)CN1CCc3cc4oc(=O)oc4cc3C1C2 (centres unmarked) [THB6]
peak and steady-state components of ACh-induced currents, mouse α4β2-nAChRs (mouse α4β2-nAChRs): inhibits
peak component of ACh-induced currents (human α4β2-nAChR [2]; 30 μM, with and without 1 min pretreatment, FIG. 9C): inhibiting
peak and steady-state components of ACh-induced currents, human α4β2-nAChRs (human α4β2-nAChR [2]; 100 μM, SH-EP1 cells): inhibits
neuronal firing rate, compound alone (VTA DA neurons [3]; 10 mg/kg IV, anesthetized mice): did not affect
nicotine-induced increase of firing rate (VTA DA neurons [3]; 10 mg/kg IV, anesthetized mice): prevented
DA neuronal firing, compound alone (VTA DA neurons [4]): did not affect
nicotine-induced firing increase (VTA DA neurons [4]): prevented
nicotine-induced increase of locomotor activity (mice; pretreatment): prevented
locomotor activity, compound alone (mice; systemic injection): did not alter

COc1ccc2c(c1OC)CN1CCc3cc4c(cc3C1C2)OCO4 (centres unmarked) [THB, tetrahydroberberine]
IC50 (human α4β2-nAChR [5]): 7 µM
ACh-induced currents, peak current component (human α4β2-nAChR [2]; SH-EP1 cells): only mildly reduced
ACh-induced currents, steady-state component (human α4β2-nAChR [2]; SH-EP1 cells): suppressed
1 mM ACh-induced whole-cell currents (human α4β2-nAChR [2]; 30 μM, SH-EP1 cells): dramatically eliminated
human α4β2-nAChR function (ACh-induced currents) (human α4β2-nAChR [2]; 30 μM, without pretreatment): inhibited
IC50 (human α4β2-nAChR [2]; IC50 value of Ip (peak current), 1 mM ACh-induced whole-cell currents, SH-EP1 cells): 2.2 µM
IC50 (human α4β2-nAChR [2]; IC50 value of Is (steady-state current), 1 mM ACh-induced whole-cell currents, SH-EP1 cells): 37 µM
rat α4β2-nAChR function (ACh-induced currents) (rat α4β2-nAChRs): inhibited
VTA DA neuron bursting fraction (VTA DA neurons [6]; [8]): increased
VTA DA neuron firing rate (VTA DA neurons [6]; [8]): increased
VTA DA neuron slow oscillations (VTA DA neurons [6]; [8]): increased
effect of nicotine on VTA DA firing rate and bursting fraction after THB (VTA DA neurons [6]; nicotine 0.5 mg/kg i.v. 5 min after THB injection): failed to increase
affinity in H-EBDN binding competition (human α4β2-nAChR [7]): high affinity

CN1CCCC1c1cccnc1 (centres unmarked) [nicotine]
mEPSC amplitude (VTA DA neurons [1]; FIG. 5D): did not affect
mEPSC frequency (VTA DA neurons [1]; bath application of 1 μM): significantly increased
neuronal firing rate at 2 minutes after injection (VTA DA neurons [3]; systemic injection, back to normal level after 8 minutes): increases
conditioned place preference (male C57BL/6 mice; 1.5 mg/Kg): induced significant CPP

/-stepholidine [/-SPD]
IC50 (human α4β2-nAChR [5]; FIG. 2B, read-out: IC50 value, carbachol-induced 86Rb+ efflux response): 30 µM
ACh-induced currents, peak current component (human α4β2-nAChR [2]; SH-EP1 cells): only mildly reduced
ACh-induced currents, steady-state component (human α4β2-nAChR [2]; SH-EP1 cells): suppressed
1 mM ACh-induced whole-cell currents (human α4β2-nAChR [2]; 30 μM, SH-EP1 cells): dramatically eliminated
affinity in H-EBDN binding competition (human α4β2-nAChR [7]): lower affinity
